Measurements from patent US20250230159A1, “FUSED HETEROCYCLIC COMPOUNDS AS MODULATORS OF RAS SIGNALLING” (Shenzhen Ionova Life Science Co., Ltd., priority 2022, published 2025).

What was measured:
[1] = molecular target: KRAS-G12C/SOS1 interaction (Homo sapiens (Human), UniProt Q07889); experiment: Protein-Protein Interaction (PPI) assay, SOS1-KRAS binding assay kit (HTRF); details: read-out: PPI Assay IC50
pERK in Hela cells = experiment: Phospho-ERK (p-ERK) assay in Hela cells; format: cell-based; details: Homo sapiens, Table 1, 1 hour with compound, β-actin normalized
Experimental: This Example illustrates that exemplary compounds of the present invention prevent KRas-mediated GTP nucleotide exchange mediated by SOS1 to inhibit KRas activity, thereby inhibiting the generation of the downstream effector pERK.
Hela cells (23,000/w) were seeded in a black clear flat bottom 96-well cell culture plate (Corning, #3904) and incubated at 37° C. overnight. At day 2, cells were dosed with compounds of Formula (I) with a 10 μM starting concentration and serially diluted 3× for a total of 9 concentrations. The cells were incubated for 1 hour with the compounds solubilized in DMSO at 37° C. Cells were immediately fixed by adding 100 μL of 8% formaldehyde to all wells in a fume hood and the plates were incubated for 1 hr at room temperature. The formaldehyde was discarded from the plates and washed 5 times and each time for 5 min with 200 μL of Triton Washing Solution (0.1% Triton in PBS) each time to permeabilize the cells. Cells were then blocked with 150 μL of Odyssey blocking buffer (LI-COR Biosciences #927-50010) at room temperature on a shaker. The blocking buffer was discarded and 50 μL of primary antibodies pERK (cell signaling Technology #4370; Rabbit, 1:500) and β-actin (AF5001; Mouse, 1:2000) diluted in Odyssey blocking buffer was added. The plates were incubated overnight at 4° C. on a shaker.
On day 3, the primary antibody solution was removed. Each plate was washed 5× times with 200 μL of 1×PBST (PBS+0.1% Tween 20) and incubated with 50 μL of secondary antibodies: Anti-Rabbit (LI-COR Biosciences #926-32211) and Anti-Mouse (LI-COR Biosciences #68070) at 1:1000 dilution in Odyssey blocking buffer at room temperature on a shaker for 1 hour (protected from light). The secondary antibody solution as removed and each plate was washed with PBST 5× times. Any liquid remaining was discarded and the plate was imaged using the Licor Odyssey machine according to the manufacturer's instruction, using a set focus length at 3.5 mm and both 800 nm and 700 nm filters. The 3-actin normalized scan values for each well were divided by the average of vehicle wells to get the % of p-ERK inhibition. The IC50 values were then calculated with the Graph pad Prism software. In general, p-ERK IC50 data are in line with the PPI IC50 data.

Sequence of KRAS-G12C/SOS1 interaction (Q07889 whole entry, stated change not applied): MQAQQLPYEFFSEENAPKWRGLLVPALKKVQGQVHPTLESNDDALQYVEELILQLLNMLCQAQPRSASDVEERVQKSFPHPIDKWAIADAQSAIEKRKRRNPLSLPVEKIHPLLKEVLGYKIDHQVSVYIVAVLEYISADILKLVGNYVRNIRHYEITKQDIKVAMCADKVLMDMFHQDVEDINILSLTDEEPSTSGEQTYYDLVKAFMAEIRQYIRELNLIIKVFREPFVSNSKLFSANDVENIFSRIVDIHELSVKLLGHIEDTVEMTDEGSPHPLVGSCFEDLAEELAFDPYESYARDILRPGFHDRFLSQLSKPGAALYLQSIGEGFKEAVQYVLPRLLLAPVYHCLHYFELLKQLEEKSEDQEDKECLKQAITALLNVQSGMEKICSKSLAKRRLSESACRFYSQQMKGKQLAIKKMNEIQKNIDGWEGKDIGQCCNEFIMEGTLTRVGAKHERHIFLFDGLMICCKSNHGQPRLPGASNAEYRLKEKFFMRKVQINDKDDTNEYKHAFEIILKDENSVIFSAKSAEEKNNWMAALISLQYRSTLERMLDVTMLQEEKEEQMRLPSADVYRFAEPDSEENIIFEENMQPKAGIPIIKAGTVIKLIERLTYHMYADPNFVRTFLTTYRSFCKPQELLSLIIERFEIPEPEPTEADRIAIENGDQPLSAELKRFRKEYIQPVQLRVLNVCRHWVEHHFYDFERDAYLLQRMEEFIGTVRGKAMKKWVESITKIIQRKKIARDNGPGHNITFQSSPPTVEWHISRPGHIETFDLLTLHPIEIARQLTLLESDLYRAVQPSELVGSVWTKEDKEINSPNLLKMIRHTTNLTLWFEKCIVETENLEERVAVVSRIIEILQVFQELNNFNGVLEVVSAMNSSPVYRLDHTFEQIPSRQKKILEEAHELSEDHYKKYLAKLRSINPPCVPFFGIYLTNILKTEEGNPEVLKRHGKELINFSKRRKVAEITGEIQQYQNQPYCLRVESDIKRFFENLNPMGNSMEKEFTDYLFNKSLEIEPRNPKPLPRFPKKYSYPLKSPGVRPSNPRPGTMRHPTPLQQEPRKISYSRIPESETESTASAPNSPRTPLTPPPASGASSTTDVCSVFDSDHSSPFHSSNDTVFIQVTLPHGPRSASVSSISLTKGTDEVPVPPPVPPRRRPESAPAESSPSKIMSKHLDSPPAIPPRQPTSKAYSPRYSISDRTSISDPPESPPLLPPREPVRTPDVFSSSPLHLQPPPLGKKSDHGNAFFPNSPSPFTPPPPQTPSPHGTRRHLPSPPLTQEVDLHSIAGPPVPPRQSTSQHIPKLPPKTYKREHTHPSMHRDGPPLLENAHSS

`CC(=O)N1CCC(O)(c2cc3c(N[C@H](C)c4cccc(C(F)F)c4F)nc(C)nc3n3cnnc23)C1` (some centres unmarked) [Example 109] was tested, and the IC50 [1] was < 100 nM and the IC50 (pERK in Hela cells) was > 100 nM.

For `CC(=O)N1CCC(O)(c2cc3c(N[C@H](C)c4cccc(C(F)F)c4F)nc(C)nc3n3nnnc23)CC1` [Example 112], the IC50 [1] was < 100 nM and the IC50 (pERK in Hela cells) was > 100 nM.

`CC(=O)N1CCC(O)(c2cc3c(N[C@H](C)c4cccc(C(F)F)c4F)ncnc3n3nnnc23)CC1` [Example 113] was tested, and the IC50 [1] was < 100 nM and the IC50 (pERK in Hela cells) was > 100 nM.

In the case of `CC(=O)N1CCC(F)(c2cc3c(N[C@H](C)c4cccc(C(F)F)c4F)nc(C)nc3n3cnnc23)CC1` [Example 114, (R)-1-(4-(4-((1-(3-(difluoromethyl)-2-fluorophenyl)ethyl)amino)-2-methyl-[1,2,4]triazolo[4′,3′:1,6]pyrido[2,3-d]pyrimidin-6-yl)-4-fluoropiperidin-1-yl)ethan-1-one], the IC50 [1] is reported as < 100 nM and the IC50 (pERK in Hela cells) is reported as < 100 nM.

For `CC(=O)N1CCC(F)(c2cc3c(N[C@H](C)c4cccc(C(F)F)c4F)nc(C)nc3n3cnnc23)C1` (some centres unmarked) [Example 115], the IC50 [1] was < 100 nM and the IC50 (pERK in Hela cells) was > 100 nM.

In the case of `CC(=O)N1CCC(F)(c2cc3c(N[C@H](C)c4cccc(C(F)F)c4F)nc(C)nc3n3nnnc23)CC1` [Example 116], the IC50 [1] is reported as < 100 nM and the IC50 (pERK in Hela cells) is reported as < 100 nM.

For `CC(=O)N1CCC(F)(c2cc3c(N[C@H](C)c4cccc(C(F)F)c4F)ncnc3n3nnnc23)CC1` [Example 117], the IC50 [1] was < 100 nM and the IC50 (pERK in Hela cells) was < 100 nM.

With `COC1(c2cc3c(N[C@H](C)c4cccc(C(F)F)c4F)nc(C)nc3n3cnnc23)CCN(C(C)=O)CC1` [Example 118, (R)-1-(4-(4-((1-(3-(difluoromethyl)-2-fluorophenyl)ethyl)amino)-2-methyl-[1,2,4]triazolo[4′,3′:1,6]pyrido[2,3-d]pyrimidin-6-yl)-4-methoxypiperidin-1-yl)ethan-1-one] the IC50 [1] was < 100 nM and the IC50 (pERK in Hela cells) was < 100 nM.

`COC1(c2cc3c(N[C@H](C)c4cccc(C(F)F)c4F)ncnc3n3cnnc23)CCN(C(C)=O)CC1` [Example 119] was tested, and the IC50 [1] was < 100 nM and the IC50 (pERK in Hela cells) was < 100 nM.

`COC1(c2cc3c(N[C@H](C)c4cccc(C(F)F)c4F)nc(C)nc3n3cnnc23)CCN(C(C)=O)C1` (some centres unmarked) [Example 120] was tested, and the IC50 [1] was < 100 nM and the IC50 (pERK in Hela cells) was < 100 nM.

In the case of `COC1(c2cc3c(N[C@H](C)c4cccc(C(F)F)c4F)ncnc3n3cnnc23)CCS(=O)(=O)CC1` [Example 121], the IC50 [1] is reported as < 100 nM and the IC50 (pERK in Hela cells) is reported as < 100 nM.

`COC1(c2cc3c(N[C@H](C)c4cc(N)cc(C(F)(F)F)c4)ncnc3n3cnnc23)CCN(C(C)=O)CC1` [Example 122] was tested, and the IC50 [1] was < 100 nM and the IC50 (pERK in Hela cells) was < 100 nM.

For `COC1(c2cc3c(N[C@H](C)c4cc(N)cc(C(F)(F)F)c4)ncnc3n3cnnc23)CCOCC1` [Example 123], the IC50 [1] was < 100 nM and the IC50 (pERK in Hela cells) was < 100 nM.

With `COC1(c2cc3c(N[C@H](C)c4cccc(C(F)F)c4F)nc(C)nc3n3c(C)nnc23)CCN(C(C)=O)CC1` [Example 124] the IC50 [1] was < 100 nM and the IC50 (pERK in Hela cells) was < 100 nM.

In the case of `COC1(c2cc3c(N[C@H](C)c4cccc(C(F)F)c4F)ncnc3n3nnnc23)CCN(C(C)=O)CC1` [Example 125], the IC50 [1] is reported as < 100 nM and the IC50 (pERK in Hela cells) is reported as < 100 nM.

With `CC(=O)N1CCC(C)(c2cc3c(N[C@H](C)c4cccc(C(F)F)c4F)nc(C)nc3n3cnnc23)CC1` [Example 127, (R)-1-(4-(4-((1-(3-(difluoromethyl)-2-fluorophenyl)ethyl)amino)-2-methyl-[1,2,4]triazolo[4′,3′:1,6]pyrido[2,3-d]pyrimidin-6-yl)-4-methylpiperidin-1-yl)ethan-1-one] the IC50 [1] was < 100 nM and the IC50 (pERK in Hela cells) was < 100 nM.

In the case of `C[C@@H](Nc1ncnc2c1cc(C1(C)CCS(=O)(=O)CC1)c1nncn12)c1cccc(C(F)F)c1F` [Example 129], the IC50 [1] is reported as < 100 nM and the IC50 (pERK in Hela cells) is reported as < 100 nM.

In the case of `C[C@@H](Nc1ncnc2c1cc(C1(C)CCOCC1)c1nncn12)c1cc(N)cc(C(F)(F)F)c1` [Example 130], the IC50 [1] is reported as < 100 nM and the IC50 (pERK in Hela cells) is reported as > 100 nM.

In the case of `CC(=O)N1CCC(C)(c2cc3c(N[C@H](C)c4cccc(C(F)F)c4F)nc(C)nc3n3nnnc23)CC1` [Example 131], the IC50 [1] is reported as < 100 nM and the IC50 (pERK in Hela cells) is reported as < 100 nM.
